Results as given in patent publication US20160206688A1, “METHODS FOR TREATING BACTEREMIA AND OSTEOMYELITIS USING ORITAVANCIN” (THE MEDICINES COMPANY, priority 2013, published 2016).
Values after ≈ are worked out from the molar mass of the structure shown. Read-outs that look alike come from different tables or passages of the source.

What was measured:
[1] = Oritavancin concentrations (PK samples) in compassionate use subject; assay type: in vivo, human
Method: In response to a compassionate use request, oritavancin was administered to a subject having bacteremia.
Treatment as of Feb. 8, 2013: oritavancin (1200 mg IV, Q2D×3 times, then QW×5 times).
PK samples have been taken.
Attending physician kept the infusion time at 4 hours.
The concentrations are consistent with expectations from modeling (modeled oritavancin concentration-time profile is attached), with oritavancin attaining peaks of about 120-130 ug/mL and troughs of around 5-10 ug/mL for the loading phase and of around 5 ug/mL for the weekly dosing phase.

[2] = test system: S. aureus; assay: Broth microdilution MIC, European bacteraemia isolates 2010-2012; assay type: cell-based
Method: A total of 2,904 clinical strains responsible for documented bacteremia among unique hospitalized patients in 38 hospitals in 11 European Union countries. Israel, Russia, Turkey and Ukraine were included in this study (2010-2012). Isolates were submitted to a central monitoring laboratory (JMI Laboratories, North Liberty. Iowa. USA), following previously established protocols. Bacterial species identification was performed by using an automated system (Vitek®2; bioMèrieux, Hazelwood, Mo., USA) or conventional biochemical algorithms, as required.
Isolates were tested for susceptibility by broth microdilution methods following the Clinical and Laboratory Standards Institute (CLSI; M07-A9, 2012) document. Susceptibility testing was performed in cation-adjusted Mueller-Hinton broth (CA-MHB) using dry-form panels manufactured by Thermo Fisher Scientific, formerly TREK Diagnostics Systems/Sensititre (Cleveland. Ohio, USA). These panels provide results equivalent to the CLSI-approved broth microdilution method supplemented with 0.002% polysorbate-80.
Quality assurance was performed by concurrent testing of CLSI-recommended (M100-S23, 2013) strains: E. faecalis ATCC 29212 and S. aureus ATCC 29213. Interpretation of comparator MIC results was in accordance with published CLSI (M100-S23) and European Committee on Antimicrobial Susceptibility Testing (EUCAST, 2013) criteria.

[3] = S. aureus, Methicillin-Susceptible (1,126), at ≦0.008 mg/L
[4] = S. aureus, Methicillin-resistant (372), at ≦0.008 mg/L
[5] = S. aureus, Vancomycin MIC = 2 mg/L (19), at 0.015 mg/L
[6] = S. aureus, Vancomycin MIC = 2 mg/L (19), at 0.03 mg/L
[7] = S. aureus, Vancomycin MIC = 2 mg/L (19), at 0.06 mg/L
[8] = S. aureus, Vancomycin MIC = 2 mg/L (19), at 0.12 mg/L
[9] = Staphylococcus aureus, Table 1, S. aureus, Methicillin-Susceptible (1,126)
[10] = Staphylococcus aureus, Table 1, S. aureus, Methicillin-resistant (372)
[11] = Staphylococcus aureus, read-out: cumulative % inhibited at MIC
[12] = Staphylococcus aureus, Table 2, S. aureus Methicillin-resistant (1,708)

Which results are given for `CN[C@H](CC(C)C)C(=O)N[C@H]1C(=O)N[C@@H](CC(N)=O)C(=O)N[C@H]2C(=O)N[C@H]3C(=O)N[C@H](C(=O)N[C@H](C(=O)O)c4cc(O)cc(O)c4-c4cc3ccc4O)[C@H](O[C@H]3C[C@](C)(N)[C@@H](O)[C@H](C)O3)c3ccc(c(Cl)c3)Oc3cc2cc(c3O[C@@H]2O[C@H](CO)[C@@H](O)[C@H](O)[C@H]2O[C@H]2C[C@](C)(NCc3ccc(-c4ccc(Cl)cc4)cc3)[C@@H](O)[C@H](C)O2)Oc2ccc(cc2Cl)[C@H]1O` [Oritavancin, N-(4-(4-chlorophenyl)benzyl)A82846B]?
peaks (oritavancin concentration) ([1]; 1200 mg IV, Q2D x3 then QW x5): 120 to 130 µg/mL; Oritavancin concentration ([1]; Peak - First Dose, 1200 mg IV): 114.793 µg/mL; Oritavancin concentration ([1]; Peak - Third Dose, 1200 mg IV): 133.581 µg/mL; Oritavancin concentration ([1]; Trough - First Dose, 1200 mg IV): 4.272 µg/mL; Oritavancin concentration ([1]; Trough - Second Dose, 1200 mg IV): 7.614 µg/mL; troughs (oritavancin concentration) ([1]; loading phase): 5 to 10 µg/mL; Oritavancin concentration ([1]; trough, fifth dose, 1200 mg IV): 4.584 µg/mL; Oritavancin concentration ([1]; trough, fourth dose, 1200 mg IV): 4.256 µg/mL; Oritavancin concentration ([1]; trough, sixth dose, 1200 mg IV): 4.489 µg/mL; Oritavancin concentration ([1]; trough, third dose, 1200 mg IV): 3.775 µg/mL; accumulation ([1]; weekly dosing phase): no evidence of substantial accumulation; troughs (oritavancin concentration) ([1]; weekly dosing phase): around 5 ug/mL; activity relative to vancomycin or linezolid ([2]; MRSA strains, MIC50/90): 16- to 32 fold; potency relative to daptomycin ([2]; MRSA strains, MIC50/90): eight-fold; MIC50, MIC90 and modal MIC relative to strains with vancomycin MIC≦1 mg/L ([2]; S. aureus isolates with decreased susceptibility to vancomycin (MIC=2 mg/L)): two-fold higher; Number inhibited at MIC ([2]; S. aureus, Methicillin-Susceptible (1,126), at 0.015 mg/L): 247; Number inhibited at MIC ([2]; S. aureus, Methicillin-Susceptible (1,126), at 0.03 mg/L): 458; Number inhibited at MIC ([2]; S. aureus, Methicillin-Susceptible (1,126), at 0.06 mg/L): 297; Number inhibited at MIC ([2]; S. aureus, Methicillin-Susceptible (1,126), at 0.12 mg/L): 78; Number inhibited at MIC ([2]; S. aureus, Methicillin-Susceptible (1,126), at 0.25 mg/L): 18; Number inhibited at MIC [2, 3]: 28; cumulative % inhibited at MIC [2, 3]: 2.5%; Number inhibited at MIC ([2]; S. aureus, Methicillin-resistant (372), at 0.015 mg/L): 86; Number inhibited at MIC ([2]; S. aureus, Methicillin-resistant (372), at 0.03 mg/L): 180; Number inhibited at MIC ([2]; S. aureus, Methicillin-resistant (372), at 0.06 mg/L): 68; Number inhibited at MIC ([2]; S. aureus, Methicillin-resistant (372), at 0.12 mg/L): 27; Number inhibited at MIC ([2]; S. aureus, Methicillin-resistant (372), at 0.25 mg/L): 6; Number inhibited at MIC [2, 4]: 5; cumulative % inhibited at MIC [2, 4]: 1.3%; Number inhibited at MIC [2, 5]: 1; cumulative % inhibited at MIC [2, 5]: 5.3%; Number inhibited at MIC [2, 6]: 3; cumulative % inhibited at MIC [2, 6]: 21.1%; Number inhibited at MIC [2, 7]: 11; cumulative % inhibited at MIC [2, 7]: 78.9%; Number inhibited at MIC [2, 8]: 3; cumulative % inhibited at MIC [2, 8]: 94.7%; Number inhibited at MIC ([2]; S. aureus, Vancomycin MIC = 2 mg/L (19), at 0.25 mg/L): 1; Number inhibited at MIC ([2]; S. aureus, Vancomycin MIC = 2 mg/L (19), at ≦0.008 mg/L): 0; Number inhibited at MIC ([2]; S. aureus, Vancomycin MIC ≦1 mg/L (1,479), at 0.12 mg/L): 102; Number inhibited at MIC ([2]; S. aureus, Vancomycin MIC ≦1 mg/L (1,479), at 0.25 mg/L): 23; MIC50 ([2]; Staphylococcus aureus): 0.03 µg/mL (≈ 0.0167 µM); MIC90 ([2]; Staphylococcus aureus): 0.06 µg/mL (≈ 0.0335 µM); inhibition at 2 µg/mL ([2]; Staphylococcus aureus, S. aureus, Vancomycin MIC = 2 mg/L (19), at ≦0.008 mg/L, read-out: cumulative % inhibited at MIC): 0%; inhibition at 0.12 µg/mL ([2]; Staphylococcus aureus, S. aureus, Vancomycin MIC ≦1 mg/L (1,479), at 0.12 mg/L, read-out: cumulative % inhibited at MIC): 98.4%; inhibition at 0.25 µg/mL ([2]; Staphylococcus aureus, S. aureus, Vancomycin MIC ≦1 mg/L (1,479), at 0.25 mg/L, read-out: cumulative % inhibited at MIC): 100%; MIC50 [2, 9]: 0.03 µg/mL (≈ 0.0167 µM); MIC90 [2, 9]: 0.06 µg/mL (≈ 0.0335 µM); MIC50 [2, 10]: 0.03 µg/mL (≈ 0.0167 µM); MIC90 [2, 10]: 0.06 µg/mL (≈ 0.0335 µM); MIC50 ([2]; Staphylococcus aureus, Table 1, S. aureus, Vancomycin MIC = 2 mg/L (19), read-out: MIC 50%): 0.06 µg/mL (≈ 0.0335 µM); MIC90 ([2]; Staphylococcus aureus, Table 1, S. aureus, Vancomycin MIC = 2 mg/L (19), read-out: MIC 90%): 0.12 µg/mL (≈ 0.0669 µM); inhibition at 0.015 µg/mL [2, 11]: 24.7%; inhibition at 0.03 µg/mL [2, 11]: 67.6%; inhibition at 0.06 µg/mL [2, 11]: 91.5%; inhibition at 0.015 µg/mL ([2]; Staphylococcus aureus, read-out: cumulative % inhibited at MIC, S. aureus, Methicillin-Susceptible (1,126), at 0.015 mg/L): 24.4%; inhibition at 0.03 µg/mL ([2]; Staphylococcus aureus, read-out: cumulative % inhibited at MIC, S. aureus, Methicillin-Susceptible (1,126), at 0.03 mg/L): 65.1%; inhibition at 0.06 µg/mL ([2]; Staphylococcus aureus, read-out: cumulative % inhibited at MIC, S. aureus, Methicillin-Susceptible (1,126), at 0.06 mg/L): 91.5%; inhibition at 0.12 µg/mL ([2]; Staphylococcus aureus, read-out: cumulative % inhibited at MIC, S. aureus, Methicillin-Susceptible (1,126), at 0.12 mg/L): 98.4%; inhibition at 0.25 µg/mL ([2]; Staphylococcus aureus, read-out: cumulative % inhibited at MIC, S. aureus, Methicillin-Susceptible (1,126), at 0.25 mg/L): 100%; inhibition at 0.015 µg/mL ([2]; Staphylococcus aureus, read-out: cumulative % inhibited at MIC, S. aureus, Methicillin-resistant (372), at 0.015 mg/L): 24.5%; inhibition at 0.03 µg/mL ([2]; Staphylococcus aureus, read-out: cumulative % inhibited at MIC, S. aureus, Methicillin-resistant (372), at 0.03 mg/L): 72.9%; inhibition at 0.06 µg/mL ([2]; Staphylococcus aureus, read-out: cumulative % inhibited at MIC, S. aureus, Methicillin-resistant (372), at 0.06 mg/L): 91.1%; inhibition at 0.12 µg/mL ([2]; Staphylococcus aureus, read-out: cumulative % inhibited at MIC, S. aureus, Methicillin-resistant (372), at 0.12 mg/L): 98.4%; inhibition at 0.25 µg/mL ([2]; Staphylococcus aureus, read-out: cumulative % inhibited at MIC, S. aureus, Methicillin-resistant (372), at 0.25 mg/L): 100%; MIC50 [2, 12]: 0.03 µg/mL (≈ 0.0167 µM); MIC90 [2, 12]: 0.06 µg/mL (≈ 0.0335 µM); MIC Range ([2]; Table 2, S. aureus Methicillin-resistant (1,708)): ≦0.008-0.25 mg/L
